Reference: patent US20230276792A1, “SELECTIVE HERBICIDES BASED ON SUBSTITUTED ISOXAZOLIN CARBOXAMIDES AND CLOQUINTOCET-MEXYL” (Bayer Aktiengesellschaft, priority 2020, published 2023)

How the values were obtained:
Format in all cases: in vivo
[1] = system: spring wheat, TRZAS Triso; assay: Safener seed treatment, post-emergence herbicide application, crop damage; details: for HER effect + SAF [%] / Reduction [%]: cloquintocet-mexyl 0, 5 g a.i./kg seed; for HER effect [%]: without safener
Description: (§1) For safener seed treatment trials, sufficient seed amounts of the respective crops (spring wheat (TRZAS); spring barley (HORVS)) were weighed into screw cap glass bottles with a minimum volume trice of the seeds.
(§2) As a first step, specified safeners formulated as wettable powder (WP) or wettable granules (WG) were weighed out for the required dosages (g a.i./kg seed), corresponding to the seed amounts. The safener amounts were mixed with a coloured slurry blind formulation type, pre-diluted with milk at 3.5% fat rate (25 mgs slurry formulation plus 2 ml milk per 10 grams of seed). A tube roller was used for coating. The solutions were gradually pipetted each on the rotating seeds followed by coating for min. 3 hours until all liquid had been soaked up by the seeds. Thereafter, the coated seeds were put flat on open trays for drying over night at room temperature.
(§3) Treated seeds were then placed into pots (7 cm diameter) on the surface of sandy loam, pressed down, flat covered with additional soil and finally covered with sandy soil, also pressed down, watered, and kept under good growth conditions in a greenhouse, until the plants had reached 2-leaf-stage (BBCH 12).
(§4) At that stage, post-emergence application of the specified herbicides was done on: • a) pot sets containing plants with safener-coated seeds as described above, • b) as a reference, pot sets of plants without seed treatment.
(§5) The herbicides were formulated as wettable powder (WP). Equivalent to the spray area, compound amounts were weighed out and diluted related to the water application rate (300 l/ha) to an aqueous suspension plus additive (1 l/ha MERO). Dosage related equivalents were conventionally sprayed on trays with the potted plants.
(§6) After application, the test plants were kept under good growth conditions in a greenhouse. Assessment timings were 10 and 21 days after treatment (DAT) with the herbicide, by visual scoring of the crop damage in % (comparison of untreated with treated plants, either sprayed only with herbicide or with herbicide on plants with treated seeds).
(§7) Reduction [Difference]=herbicide damage without safener−herbicide damage with safener
(§8) Reduction [%]=(Reduction [Difference]*100)/herbicide damage without safener
b) Plant Species, Variety: TRZAS Triso, Safener (SAF): Cloquintocet-Mexyl

[2] = system: spring barley, HORVS Montoya; assay: as above; set-up: key to Reduction [Difference]: % crop damage without safener minus % damage with safener; details: for Reduction [Difference] / Reduction [%] / HER effect + SAF: cloquintocet-mexyl 0, 5 g a.i./kg seed; for HER effect: without safener
Description: as §1, §2, §3, §4, §5, §6, §7, §8
(§9) a) Plant Species, Variety: HORVS Montoya, Safener (SAF): Cloquintocet-Mexyl

[3] = system: spring barley, HORVS Montoya; assay: Tank-mix post-emergence crop damage, herbicide with and without safener cloquintocet-mexyl, greenhouse; set-up: key to Reduction [Difference]: damage without safener − damage with safener, % points (0–100% scale)
Description: Seeds of crops (spring wheat, TRZAS; spring barley, HORVS; maize, ZEAMA) were placed in sandy loam soil in peat pots, covered with soil and cultivated in a greenhouse under good growth conditions. Two to three weeks after sowing, the test plants were treated at the 1 to 3-leaf stage. The herbicide/safener active compound combinations according to the invention, formulated as wettable powders or emulsion concentrates, and, in parallel tests, the correspondingly formulated individual active compounds were sprayed onto the green parts of the plants in various dosages using an amount of water of 300 l/ha (converted).
The pots were returned under good growing conditions in a glasshouse and a visual assessment of herbicidal effects was made at intervals from 1 to 3 weeks after herbicide application (DAT=days after treatment). Assessment was on a percentage basis in comparison with untreated control plants (0%=no injury, 100%=complete kill).
as §7, §8, §9

[4] = 21 DAT, HER dose 1, 5 g a.i./ha
[5] = 10 DAT, HER dose 8 g a.i./ha, cloquintocet-mexyl 50 g a.i./ha
[6] = 21 DAT, HER dose 2 g a.i./ha, cloquintocet-mexyl 100 g a.i./ha
[7] = 10 DAT, HER dose 32 g a.i./ha, cloquintocet-mexyl 100 g a.i./ha
[8] = 10 DAT, HER dose 48 g a.i./ha, cloquintocet-mexyl 100 g a.i./ha
[9] = 10 DAT, HER dose 1, 5 g a.i./ha

COC(=O)C1(C)CC(NC(=O)C2(C(C)(F)F)CC(c3cc(F)cc(F)c3)=NO2)CO1 (mixture of isomers) [Example 1.94]
HER effect + SAF [%] [1, 4]: 0%
HER effect [%] [1, 4]: 20%
HER effect + SAF [%] ([1]; 21 DAT, HER dose 6 g a.i./ha): 10%
HER effect [%] ([1]; 21 DAT, HER dose 6 g a.i./ha): 85%
HER effect + SAF [%] ([1]; 21 DAT, HER dose 24 g a.i./ha): 20%
HER effect [%] ([1]; 21 DAT, HER dose 24 g a.i./ha): 85%
Reduction [Difference] ([2]; 10 DAT, HER dose 8 g a.i./ha): 90
Reduction [%] ([2]; 10 DAT, HER dose 32 g a.i./ha): 89%
Reduction [Difference] ([2]; 10 DAT, HER dose 32 g a.i./ha): 80
Reduction [Difference] [3, 5]: 90

COC(=O)C1C=CC(NC(=O)C2(C(F)(F)F)CC(c3cccc(F)c3)=NO2)C1 (stereo not drawn) [Example 1.18]
Reduction [Difference] ([2]; 10 DAT, HER dose 32 g a.i./ha): 80

C=CCOC(=O)C1CC(NC(=O)C2(C=C)CC(c3cc(C)cc(F)c3)=NO2)CO1 (mixture of isomers) [Example 1.85]
HER effect + SAF ([2]; 10 DAT, HER dose 32 g a.i./ha): 10%
Reduction [%] ([2]; 10 DAT, HER dose 32 g a.i./ha): 88%
Reduction [Difference] ([2]; 10 DAT, HER dose 32 g a.i./ha): 70

C=CC1(C(=O)NC2C=CC(C(=O)OC)C2)CC(c2cc(F)cc(F)c2)=NO1 (stereo not drawn) [Example 1.26]
HER effect + SAF [%] ([1]; 21 DAT, HER dose 2 g a.i./ha): 10%
Reduction [%] ([1]; 21 DAT, HER dose 2 g a.i./ha): 89%
HER effect [%] ([1]; 21 DAT, HER dose 2 g a.i./ha): 90%
HER effect + SAF [%] ([1]; 21 DAT, HER dose 8 g a.i./ha): 30%
Reduction [%] ([1]; 21 DAT, HER dose 8 g a.i./ha): 68%
HER effect [%] ([1]; 21 DAT, HER dose 8 g a.i./ha): 93%
HER effect + SAF ([2]; 21 DAT, HER dose 2 g a.i./ha): 30%
Reduction [%] ([2]; 21 DAT, HER dose 2 g a.i./ha): 68%
Reduction [Difference] ([2]; 21 DAT, HER dose 2 g a.i./ha): 63
HER effect ([2]; 21 DAT, HER dose 2 g a.i./ha): 93%
Reduction [%] ([2]; 21 DAT, HER dose 8 g a.i./ha): 47%
Reduction [Difference] ([2]; 21 DAT, HER dose 8 g a.i./ha): 45
HER effect ([2]; 21 DAT, HER dose 8 g a.i./ha): 95%
HER effect + SAF [3, 6]: 10%
Reduction [%] [3, 6]: 83%
Reduction [Difference] [3, 6]: 50

COC(=O)C1COCC1NC(=O)C1(C)CC(c2cc(F)cc(F)c2)=NO1 (mixture of isomers) [Example 1.93]
HER effect + SAF [%] ([1]; 21 DAT, HER dose 2 g a.i./ha): 0%
HER effect [%] ([1]; 21 DAT, HER dose 2 g a.i./ha): 85%
HER effect + SAF [%] ([1]; 21 DAT, HER dose 8 g a.i./ha): 10%
HER effect [%] ([1]; 21 DAT, HER dose 8 g a.i./ha): 93%
HER effect + SAF [%] ([1]; 21 DAT, HER dose 32 g a.i./ha): 10%
HER effect [%] ([1]; 21 DAT, HER dose 32 g a.i./ha): 95%
HER effect + SAF ([2]; 10 DAT, HER dose 32 g a.i./ha): 20%
Reduction [%] ([2]; 10 DAT, HER dose 32 g a.i./ha): 78%
Reduction [Difference] ([2]; 10 DAT, HER dose 32 g a.i./ha): 70
HER effect + SAF [3, 5]: 60%
Reduction [%] [3, 5]: 29%
Reduction [Difference] [3, 5]: 25
HER effect + SAF [3, 7]: 60%
Reduction [%] [3, 7]: 33%
Reduction [Difference] [3, 7]: 30

CSCCOC(=O)C1C=CC(NC(=O)C2(C(F)(F)F)CC(c3cc(F)cc(F)c3)=NO2)C1 (stereo not drawn) [Example 1.7]
HER effect + SAF [%] ([1]; 10 DAT, HER dose 2 g a.i./ha): 0%
HER effect [%] ([1]; 10 DAT, HER dose 2 g a.i./ha): 50%
HER effect + SAF [%] ([1]; 10 DAT, HER dose 8 g a.i./ha): 30%
Reduction [%] ([1]; 10 DAT, HER dose 8 g a.i./ha): 68%
HER effect [%] ([1]; 10 DAT, HER dose 8 g a.i./ha): 93%
HER effect + SAF [%] ([1]; 10 DAT, HER dose 32 g a.i./ha): 50%
Reduction [%] ([1]; 10 DAT, HER dose 32 g a.i./ha): 46%
HER effect [%] ([1]; 10 DAT, HER dose 32 g a.i./ha): 93%
HER effect + SAF ([2]; 21 DAT, HER dose 2 g a.i./ha): 30%
Reduction [Difference] ([2]; 21 DAT, HER dose 2 g a.i./ha): 40
HER effect + SAF ([2]; 21 DAT, HER dose 32 g a.i./ha): 60%
Reduction [%] ([2]; 21 DAT, HER dose 32 g a.i./ha): 37%
Reduction [Difference] ([2]; 21 DAT, HER dose 32 g a.i./ha): 35

C=CC1(C(=O)NC2COC(C(=O)OCCOC)C2)CC(c2cc(C)cc(F)c2)=NO1 (mixture of isomers) [Example 1.65]
HER effect + SAF [%] ([1]; 10 DAT, HER dose 8 g a.i./ha): 0%
HER effect [%] ([1]; 10 DAT, HER dose 8 g a.i./ha): 20%
Reduction [Difference] ([2]; 10 DAT, HER dose 8 g a.i./ha): 80
HER effect + SAF ([2]; 10 DAT, HER dose 32 g a.i./ha): 10%
Reduction [%] ([2]; 10 DAT, HER dose 32 g a.i./ha): 88%
Reduction [Difference] ([2]; 10 DAT, HER dose 32 g a.i./ha): 70

CCOC(=O)C1C=CC(NC(=O)C2(C(F)(F)F)CC(c3cc(OC)cc(OC)c3)=NO2)C1 (mixture of isomers) [Example 1.12]
HER effect + SAF [3, 8]: 10%
Reduction [%] [3, 8]: 83%
Reduction [Difference] [3, 8]: 50

COC(=O)C1CC(NC(=O)C2(OC)CC(c3cc(F)cc(F)c3)=NO2)CO1 (mixture of isomers) [Example 1.72]
HER effect + SAF [%] ([1]; 21 DAT, HER dose 32 g a.i./ha): 10%
HER effect [%] ([1]; 21 DAT, HER dose 32 g a.i./ha): 60%
Reduction [%] [3, 5]: 67%
HER effect + SAF [3, 7]: 20%
Reduction [%] [3, 7]: 60%

CC(C)OC(=O)C1CC(NC(=O)C2(C)CC(c3cccc(F)c3)=NO2)CO1 (mixture of isomers) [Example 1.78]
HER effect + SAF [%] [1, 9]: 0%
HER effect [%] [1, 9]: 20%
HER effect + SAF [%] ([1]; 10 DAT, HER dose 6 g a.i./ha): 0%
HER effect [%] ([1]; 10 DAT, HER dose 6 g a.i./ha): 70%
HER effect + SAF [%] ([1]; 10 DAT, HER dose 24 g a.i./ha): 10%
HER effect [%] ([1]; 10 DAT, HER dose 24 g a.i./ha): 70%

CC1(C(=O)NC2CC=C(C(=O)NS(C)(=O)=O)C2)CC(c2cc(F)cc(F)c2)=NO1 (mixture of isomers) [Example 1.61]
HER effect + SAF [%] ([1]; 10 DAT, HER dose 8 g a.i./ha): 0%
Reduction [%] ([1]; 10 DAT, HER dose 8 g a.i./ha): 100%
HER effect [%] ([1]; 10 DAT, HER dose 8 g a.i./ha): 50%
HER effect + SAF [%] ([1]; 10 DAT, HER dose 32 g a.i./ha): 0%
Reduction [%] ([1]; 10 DAT, HER dose 32 g a.i./ha): 100%
HER effect [%] ([1]; 10 DAT, HER dose 32 g a.i./ha): 50%
